Laboratory results taken from patent publication US12240844B2 (Voronoi, Inc., priority 2019, dated 2025).

How the values were obtained:
[1] = biological target: T1, LRRK2, LRRK2 (G2019S), DYRK1, CLK1 and TTK kinases (Homo sapiens, UniProt Q13627); test: Enzyme IC50 by Kinase HotSpot service (Reaction Biology Corporation), values marked with *; type: biochemical; details: DYRK1, ATP 10 uM
T1 construct: other: DYRK1; Kinase HotSpot service (Reaction Biology), ATP 10 uM
Method in brief: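 Radiometric-service kinase assays (Reaction Biology HotSpot protocol) run at 10 uM ATP under uniform conditions. Compounds tested as 3-fold dilution series from a top concentration of […] to give IC50.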

MDA-MB-231 cell line = test: MDA-MB-231 cancer cell proliferation inhibition (Cell Titer-Glo); type: cell-based; details: Homo sapiens, MDA-MB-231 triple-negative breast cancer cell line, 72 hours
Method in brief: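 GI50 comes from CellTiter-Glo luminescence, read 10 min after reagent addition at RT, following 72 h compound treatment. Eleven concentrations were used (⅓ steps, highest 10 μM final) on 2000 cells/well. MDA-MB-231 and MDA-MB-468 were grown in DMEM, SHP-77 in RPMI.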

LRRK2 (G2019S) = LRRK2 (G2019S) (Homo sapiens, UniProt Q5S007, G2019S); test: LRRK2 G2019S enzyme inhibition, ADP-Glo kinase assay; type: biochemical; design: purchased SignalChem L10-12GG
Method in brief: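 Purified human LRRK2 G2019S (16 ng) with 25 μM ATP and 0.2 μg substrate, 2 h at 25° C in 40 mM Tris-HCl pH 7.4, 20 mM MgCl2, 0.5 mg/ml BSA, 50 μM DTT; compound at 12 final concentrations from 50 μM downward. ADP-Glo luminescence versus solvent control gave IC50 (nM).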

human GST-CLK1 (129-end) = biological target: T2, human GST-CLK1 (129-end) (Homo sapiens, UniProt P49759); test: GST-CLK1 enzyme inhibition, ADP-Glo kinase assay; type: biochemical; details: ATP 10 uM
T2 construct: purified human GST-CLK1 (129-end, Signalchem) enzyme; GST; purchased Signalchem
Method in brief: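 GST-CLK1 (129-end, 3 ng) reacted with 10 uM ATP and substrate in 40 mM Tris-HCl pH 7.4, 20 mM MgCl2, 0.5 mg/mL BSA, 50 uM DTT, 1 h at 25° C. ADP-Glo luminescence normalised to solvent control; IC50 from triplicate data.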

DYRK1A = biological target: T3, DYRK1A (Homo sapiens, UniProt Q13627); test: scanMAX Kinase panel (DiscoverX), % control; type: binding; details: <35% = active
T3 construct: purchased DiscoverX
Experimental: Specifically, for Examples 162, 160, 105, 217, 205, 96, 207, 184, 206, 221, 238, and 237 selected among the example compounds of the present invention, it was decided to measure enzyme (kinase) selectivity by DiscoverX, and the experiment was conducted using a panel for scanMAX™ Kinase analysis. At this time, the concentration of the drug treated with the enzyme was 1 uM in DMSO, the control percentage (% control) was determined in the same way as in Equation 1 below, and the results were shown in Table 6 below. [formula] Here, the positive control refers to a compound showing a control percentage of 0%, and the negative control is DMSO, indicating a control percentage of 100%. Also, in the enzyme selectivity of the present invention, if the control percentage for each enzyme was <35% (i.e., less than 35%), it was determined to have activity against the relevant enzyme.

Chain of LRRK2 (G2019S) (Q5S007 970-2527 G2019S limits assumed): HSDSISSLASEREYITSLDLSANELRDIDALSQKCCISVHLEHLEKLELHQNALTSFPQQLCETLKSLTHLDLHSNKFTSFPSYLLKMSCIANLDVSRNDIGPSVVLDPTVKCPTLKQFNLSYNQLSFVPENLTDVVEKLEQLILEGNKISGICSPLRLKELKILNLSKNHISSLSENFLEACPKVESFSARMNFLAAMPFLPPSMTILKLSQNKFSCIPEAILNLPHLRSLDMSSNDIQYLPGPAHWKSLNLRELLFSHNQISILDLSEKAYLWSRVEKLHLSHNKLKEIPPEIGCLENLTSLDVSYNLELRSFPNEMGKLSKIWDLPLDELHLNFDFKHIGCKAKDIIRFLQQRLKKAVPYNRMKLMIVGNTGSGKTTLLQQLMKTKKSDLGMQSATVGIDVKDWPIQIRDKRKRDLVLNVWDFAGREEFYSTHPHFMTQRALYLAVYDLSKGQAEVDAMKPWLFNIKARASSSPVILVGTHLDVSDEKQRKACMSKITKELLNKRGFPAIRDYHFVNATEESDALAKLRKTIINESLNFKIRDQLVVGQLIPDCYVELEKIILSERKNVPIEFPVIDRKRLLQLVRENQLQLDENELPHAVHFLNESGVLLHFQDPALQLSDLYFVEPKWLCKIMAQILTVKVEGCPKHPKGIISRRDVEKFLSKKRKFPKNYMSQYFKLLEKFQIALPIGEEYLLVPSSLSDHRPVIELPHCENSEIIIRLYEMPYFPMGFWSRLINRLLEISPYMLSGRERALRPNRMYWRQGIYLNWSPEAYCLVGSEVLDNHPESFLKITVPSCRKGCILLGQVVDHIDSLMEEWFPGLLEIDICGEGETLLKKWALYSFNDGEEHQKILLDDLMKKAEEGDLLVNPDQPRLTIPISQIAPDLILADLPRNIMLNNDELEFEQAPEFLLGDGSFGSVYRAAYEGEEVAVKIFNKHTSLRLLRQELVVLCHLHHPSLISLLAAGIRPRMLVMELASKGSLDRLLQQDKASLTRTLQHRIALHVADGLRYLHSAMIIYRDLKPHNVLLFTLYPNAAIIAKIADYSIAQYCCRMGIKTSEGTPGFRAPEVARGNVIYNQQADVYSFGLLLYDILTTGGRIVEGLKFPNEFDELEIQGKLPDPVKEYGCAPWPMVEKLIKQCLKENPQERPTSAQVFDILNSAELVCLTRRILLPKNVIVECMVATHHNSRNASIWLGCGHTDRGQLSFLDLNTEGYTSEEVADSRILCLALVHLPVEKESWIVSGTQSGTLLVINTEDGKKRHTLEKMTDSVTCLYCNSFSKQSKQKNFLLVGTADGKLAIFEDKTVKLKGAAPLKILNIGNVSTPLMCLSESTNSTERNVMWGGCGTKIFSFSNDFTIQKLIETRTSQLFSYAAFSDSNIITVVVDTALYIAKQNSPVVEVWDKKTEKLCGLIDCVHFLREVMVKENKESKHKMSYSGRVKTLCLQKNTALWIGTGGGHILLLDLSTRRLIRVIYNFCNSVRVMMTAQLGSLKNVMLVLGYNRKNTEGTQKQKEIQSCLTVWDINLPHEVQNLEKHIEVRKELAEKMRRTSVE
T2 sequence (P49759 129-484 limits assumed): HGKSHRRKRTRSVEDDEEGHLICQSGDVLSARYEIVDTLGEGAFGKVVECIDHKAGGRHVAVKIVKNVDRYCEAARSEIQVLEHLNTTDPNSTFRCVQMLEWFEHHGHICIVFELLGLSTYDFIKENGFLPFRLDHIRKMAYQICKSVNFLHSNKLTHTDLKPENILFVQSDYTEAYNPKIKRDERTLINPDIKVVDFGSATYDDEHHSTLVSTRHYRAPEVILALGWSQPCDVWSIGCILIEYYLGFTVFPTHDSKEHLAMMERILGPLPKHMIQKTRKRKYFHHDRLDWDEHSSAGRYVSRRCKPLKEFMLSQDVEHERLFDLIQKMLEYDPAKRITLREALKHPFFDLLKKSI

IC50 [1]	GI50 (MDA-MB-231 cell line)	IC50 (LRRK2 (G2019S))	IC50 (human GST-CLK1 (129-end))	remaining binding at 1 µM (DYRK1A)	Structure (SMILES)
< 100 nM	301 to 1000 nM	301 to 1000 nM	301 to 1000 nM		COc1cc(P2(=O)CCN(C(C)=O)CC2)ccc1Nc1cc(C2CC2)c2c(C(F)(F)F)c[nH]c2n1 [Example 48, 1-(4-(4-((4-cyclopropyl-3-(trifluoromethyl)-1H-pyrrolo[2,3-b]pyridin-6-yl)amino)-3-methoxyphenyl)-4-oxido-1,4-azaphosphinan-1-yl)ethan-1-one]
101 to 300 nM	301 to 1000 nM		< 100 nM		O=C(c1ccc(Nc2cc(C3CC3)c3c(C(F)(F)F)c[nH]c3n2)c2c1OCO2)N1CCC(N2CCOCC2)CC1 [Example 49, (7-((4-cyclopropyl-3-(trifluoromethyl)-1H-pyrrolo[2,3-b]pyridin-6-yl)amino)benzo[d][1,3]dioxol-4-yl)(4-morpholinopiperidin-1-yl)methanone]
< 100 nM	301 to 1000 nM	301 to 1000 nM			O=C(c1ccc(Nc2cc(C3CC3)c3c(C(F)(F)F)c[nH]c3n2)c2c1CCO2)N1CCOCC1 [Example 91, (7-((4-cyclopropyl-3-(trifluoromethyl)-1H-pyrrolo[2,3-b]pyridin-6-yl)amino)-2,3-dihydrobenzofuran-4-yl)(morpholino) methanone]
< 100 nM	301 to 1000 nM	< 100 nM	< 100 nM		O=C(c1ccc(Nc2cc(C3CC3)c3c(C(F)(F)F)c[nH]c3n2)c2c1CCO2)N1CCC(N2CCOCC2)CC1 [Example 93, (7-((4-cyclopropyl-3-(trifluoromethyl)-1H-pyrrolo[2,3-b]pyridin-6-yl)amino)-2,3-dihydrobenzofuran-4-yl)(4-morpholinopiperidin-1-yl)mthanone]
	301 to 1000 nM	< 100 nM	101 to 300 nM	1.3%	CCNc1cc(Nc2ccc(S(=O)(=O)N3CCC(N4CCOCC4)CC3)c3c2OCCO3)nc2[nH]cc(C(F)(F)F)c12 [Example 96, N^4-ethyl-N^6-(8-((4-morpholonopiperidin-1-yl)sulfonyl)-2,3-dihydrobenzo [b] [1,4]dioxin-5-yl)-3-(trifluoromethyl)-1H-pyrrolo[2,3-b]pyridine-4,6-diamine]
	301 to 1000 nM	< 100 nM	< 100 nM	0%	CCNc1cc(Nc2ccc(C(=O)N3CCC(N4C[C@@H]5C[C@H]4CO5)CC3)c3c2OCC3)nc2[nH]cc(C(F)(F)F)c12 [Example 105, (4-((1S,4S)-2-oxa-5-azabicyclo[2.2.1]heptan-5-yl)piperidin-1-yl)(7-((4-(ethylamino)-3-(trifluoromethyl)-1H-pyrrolo[2,3-b]pyridin-6-yl)amino)-2,3-dihydrobenzofuran-4-yl)methanone]
		< 100 nM	< 100 nM	0.35%	CNc1cc(Nc2ccc(C(=O)N3CCC(N4CCOCC4)CC3)c3c2OCCO3)nc2[nH]cc(C(F)(F)F)c12 [Example 160, (8-((4-(methylamino)-3-(trifluoromethyl)-1H-pyrrolo[2,3-b]pyridin-6-yl)amino)-2,3-dihydrobenzo [b] [1,4]dioxin-5-yl)(4-morpholinopiperidin-1-yl)methanone]
		< 100 nM	< 100 nM	0.35%	CCCNc1cc(Nc2ccc(C(=O)N3CCC(N4CCOCC4)CC3)c3c2OCCO3)nc2[nH]cc(C(F)(F)F)c12 [Example 162, (4-morpholinopiperidin-1-yl)(8-((4-(propylamino)-3-(trifluoromethyl)-1H-pyrrolo[2,3-b]pyridin-6-yl)amino)-2,3-dihydrobenzo[b] [1,4]dioxin-5-yl)methanone]
	301 to 1000 nM	101 to 300 nM	< 100 nM	0.25%	CNc1cc(Nc2ccc(P3(=O)CCN(C4CC4)CC3)cc2OC)nc2[nH]cc(C(F)(F)F)c12 [Example 205, 1-cyclopropyl-4-(3-methoxy-4-((4-(methylamino)-3-(trifluoromethyl)-1H-pyrrolo[2,3-b]pyridin-6-yl)amino)phenyl)-1,4-azaphosphinane 4-oxide]
			301 to 1000 nM	2%	CCNc1cc(Nc2ccc(P3(=O)CCN(C4CC4)CC3)cc2OC)nc2[nH]cc(C(F)(F)F)c12 [Example 206, 1-cyclopropyl-4-(4-((4-(ethylamino)-3-(trifluoromethyl)-1H-pyrrolo[2,3-b]pyridin-6-yl)amino)-3-methoxyphenyl)-1,4-azaphosphinane 4-oxide]
	301 to 1000 nM	101 to 300 nM	101 to 300 nM	0.4%	COCCNc1cc(Nc2ccc(P3(=O)CCN(C4CC4)CC3)cc2OC)nc2[nH]cc(C(F)(F)F)c12 [Example 207, 1-cyclopropyl-4-(3-methoxy-4-((4-((2-methoxyethyl)amino)-3-(trifluoromethyl)-1H-pyrrolo[2,3-b]pyridin-6-yl)amino)phenyl)-1,4-azaphosphinane 4-oxide]
	301 to 1000 nM		< 100 nM	0%	CNc1cc(Nc2ccc(C(=O)N3CC[C@H](N4CCOCC4)C3)c3c2OCC3)nc2[nH]cc(C(F)(F)F)c12 [Example 217, (S)-(7-((4-(methylamino)-3-(trifluoromethyl)-1H-pyrrolo[2,3-b]pyridin-6-yl)amino)-2,3-dihydrobenzofuran-4-yl)(3-morpholinopyrrolidin-1-yl)methanone]
101 to 300 nM	301 to 1000 nM	301 to 1000 nM	301 to 1000 nM		COc1cc(S(=O)(=O)N2CCOCC2)ccc1Nc1cc(C2CC2)c2c(C(F)(F)F)c[nH]c2n1 [Example 222, 4-cyclopropyl-N-(2-methoxy-4-(morpholinosulfonyl)phenyl)-3-(trifluoromethyl)-1H-pyrrolo[2,3-b]pyridin-6-amine]
101 to 300 nM	301 to 1000 nM	< 100 nM	301 to 1000 nM		N#Cc1c[nH]c2nc(Nc3ccc(C(=O)N4CCOCC4)c4c3OCCO4)cc(C3CC3)c12 [Example 225, 4-cyclopropyl-6-((8-(morpholine-4-carbonyl)-2,3-dihydrobenzo[b] [1,4]dioxin-5-yl)amino)-1H-pyrrolo[2,3-b]pyridine-3-carbonitrile]
< 100 nM	301 to 1000 nM	< 100 nM	< 100 nM		N#Cc1c[nH]c2nc(Nc3ccc(C(=O)N4CCC(N5CCOCC5)CC4)c4c3OCCO4)cc(C3CC3)c12 [Example 226, 4-cyclopropyl-6-((8-(4-morpholinopiperidine-1-carbonyl)-2,3-dihydrobenzo[b] [1,4]dioxin-5-yl)amino)-1H-pyrrolo[2,3-b]pyridine-3-carbonitrile]
< 100 nM	51 to 100 nM	< 100 nM	301 to 1000 nM		COc1cc(S(=O)(=O)N2CCC(N3CCOCC3)CC2)ccc1Nc1cc(C2CC2)c2c(C#N)c[nH]c2n1 [Example 228, 4-cyclopropyl-6-((2-methoxy-4-((4-morpholinopiperidin-1-yl)sulfonyl)phenyl)amino)-1H-pyrrolo[2,3-b]pyridine-3-carbonitrile]
< 100 nM	301 to 1000 nM			2.2%	O=C(c1ccc(Nc2cc(C3CC3)c3c(C(F)(F)F)c[nH]c3n2)c2c1CCO2)N1CC[C@H](N2CCOCC2)C1 [Example 237, (S)-(7-((4-cyclopropyl-3-(trifluoromethyl)-1H-pyrrolo[2,3-b]pyridin-6-yl)amino)-2,3-dihydrobenzofuran-4-yl)(3-morpholinopyrrolidin-1-yl)methanone]
< 100 nM	301 to 1000 nM			1.9%	O=C(c1ccc(Nc2cc(C3CC3)c3c(C(F)(F)F)c[nH]c3n2)c2c1CCO2)N1CC[C@@H](N2CCOCC2)C1 [Example 238, (R)-(7-((4-cyclopropyl-3-(trifluoromethyl)-1H-pyrrolo[2,3-b]pyridin-6-yl)amino)-2,3-dihydrobenzofuran-4-yl)(3-morpholinopyrrolidin-1-yl)methanone]
	301 to 1000 nM	101 to 300 nM	301 to 1000 nM		CCNc1cc(Nc2cc(F)c(S(=O)(=O)N3CCC(N4CCOCC4)CC3)cc2OC)nc2[nH]cc(C(F)(F)F)c12 [Example 266, N^4-ethyl-N^6-(5-fluoro-2-methoxy-4-((4-morpholinopiperidin-1-yl)sulfonyl)phenyl)-3-(trifluoromethyl)-1H-pyrrolo[2,3-b]pyridine-4,6-diamine]
